This note sets out measurements from patent US10457707B2, “Substituted urea depsipeptide analogs as activators of the CLPP endopeptidase” (priority 2015, dated 2019).

Values after ≈ are worked out from the molar mass of the structure shown. Read-outs that look alike come from different tables or passages of the source. *1 amine or outer side, *2 acyl side, *3 side chain or, on linkers, in order; H or OH if unused. Where a SMILES comes first, the peptide text is derived from it. Bridges are numbered along the chain shown (N, C = ends). [ ]: non-standard residue; d: D form. The star is where a group is joined. Phe(3,5-F2) = N[C@@H](Cc1cc(F)cc(F)c1)C(=O)O; NMepT = CN[C@H](C(=O)O)[C@@H](C)OP(=O)(O)O; NH(4-OCF3-phenyl) = FC(F)(F)Oc1ccc(N*)cc1; Morpholine(3S-CO) = O=C(O)[C@@H]1COCCN1; Pro(4S-Me) = C[C@@H]1CN[C@H](C(=O)O)C1; Pro(4R-Me) = C[C@H]1CN[C@H](C(=O)O)C1; NMeaThr = CN[C@H](C(=O)O)[C@H](C)O; NH(4-Et-phenyl) = CCc1ccc(N*)cc1; NMeT = CN[C@H](C(=O)O)[C@@H](C)O; NH(4-Me-phenyl) = Cc1ccc(N*)cc1; aThr = C[C@H](O)[C@H](N)C(=O)O; CO = O=C([*:1])[*:2]

What all share (type): cell-based
Assay [1] has as its system Streptococcus pyogenes, ATCC 700294. Briefly: Minimal inhibitory concentration assay (microbroth dilution). An outline of the steps: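 Plates with two-fold compound dilution series in broth were incubated overnight, aerobically, at 37° C, following CLSI microdilution guidance.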
For orientation: In broth dilution the organism is exposed to a series of concentrations in liquid medium.

The subject of assay [2] is Staphylococcus aureus, USA 300 wherein ClpP is inactivated. The experiment in a line: Minimal inhibitory concentration assay. Summed up:
(§1)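 Compound is serially diluted two-fold in the appropriate broth, and bacterial inoculum at about 10^5 cfu/mL is added so the highest final concentration is 200 μM. Plates stay overnight at 37 °C under aerobic conditions before growth is scored by eye.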

The test system of assay [3] is Staphylococcus aureus, USA 300. The experiment in a line: Minimal inhibitory concentration assay. As to conditions: USA300, read-out: Minimal Inhibitory Concentrations S. aureus USA 300. Summed up: as §1
Where [4] appears, read: Streptococcus pyogenes, ATCC700294, read-out: Minimal Inhibitory Concentrations S. pyogenes ATCC 700294.
The mark [5] stands for this setting: Streptococcus pyogenes, ATCC700294; read-out: Minimal Inhibitory Concentrations S. pyogenes ATCC 700294.

With `Cc1ccc(NC(=O)N[C@@H](Cc2cc(F)cc(F)c2)C(=O)N[C@@H]2C(=O)N3CCC[C@H]3C(=O)N(C)[C@@H]([C@@H](C)O)C(=O)N[C@@H](C)C(=O)N3C[C@@H](C)C[C@H]3C(=O)O[C@H]2C)cc1` [Compound 35, (S)-3-(3,5-difluorophenyl)-N-((2S,6S,9S,11aS,17S,18S,20aS)-9-((R)-1-hydroxyethyl)-2,6,10,18-tetramethyl-5,8,11,16,20-pentaoxohexadecahydro-1H,5H,16H-dipyrrolo[2,1-c:2′,1′-l][1]oxa[4,7,10,13]tetraazacyclohexadecin-17-yl)-2-(3-(p-tolyl)ureido)propanamide] ({NH(4-Me-phenyl)-CO}-[Phe(3,5-F2)][aThr]P[NMeT]A[Pro(4S-Me)]; ester 2-C), the MIC stood at 0.39 µM (≈ 0.317 µg/mL) in assay [1] (setting [4]) and 0.2 µM (≈ 0.162 µg/mL) in assay [3]. Besides, the “Minimal Inhibitory Concentrations S. aureus USA 300 ΔClpP” value in assay [2] came to 200 µM.
With `C[C@H]1C[C@H]2C(=O)O[C@@H](C)[C@H](NC(=O)[C@H](Cc3cc(F)cc(F)c3)NC(=O)Nc3ccc(OC(F)(F)F)cc3)C(=O)N3CCC[C@H]3C(=O)N(C)[C@@H]([C@@H](C)O)C(=O)N[C@@H](C)C(=O)N2C1` [Compound 36, (S)-3-(3,5-difluorophenyl)-N-((2S,6S,9S,11aS,17S,18S,20aS)-9-((R)-1-hydroxyethyl)-2,6,10,18-tetramethyl-5,8,11,16,20-pentaoxohexadecahydro-1H,5H,16H-dipyrrolo[2,1-c:2′,1′-l][1]oxa[4,7,10,13]tetraazacyclohexadecin-17-yl)-2-(3-(4-(trifluoromethoxy)phenyl)ureido)propanamide] ({NH(4-OCF3-phenyl)-CO}-[Phe(3,5-F2)][aThr]P[NMeT]A[Pro(4S-Me)]; ester 2-C), the MIC was 0.2 µM (≈ 0.176 µg/mL) in assay [1] (setting [5]) and 0.1 µM (≈ 0.0882 µg/mL) in assay [3]. Further, in assay [2], the “Minimal Inhibitory Concentrations S. aureus USA 300 ΔClpP” value was 50 µM.
The like results for `CCc1ccc(NC(=O)N[C@@H](Cc2cc(F)cc(F)c2)C(=O)N[C@@H]2C(=O)N3CCC[C@H]3C(=O)N(C)[C@@H]([C@@H](C)O)C(=O)N[C@@H](C)C(=O)N3C[C@@H](C)C[C@H]3C(=O)O[C@H]2C)cc1` [Compound 37, (S)-3-(3,5-difluorophenyl)-2-(3-(4-ethylphenyl)ureido)-N-((2S,6S,9S,11aS,17S,18S,20aS)-9-((R)-1-hydroxyethyl)-2,6,10,18-tetramethyl-5,8,11,16,20-pentaoxohexadecahydro-1H,5H,16H-dipyrrolo[2,1-c:2′,1′-l][1]oxa[4,7,10,13]tetraazacyclohexadecin-17-yl)propanamide] ({NH(4-Et-phenyl)-CO}-[Phe(3,5-F2)][aThr]P[NMeT]A[Pro(4S-Me)]; ester 2-C) were, in that order, 0.1 µM (≈ 0.0826 µg/mL), 0.1 µM (≈ 0.0826 µg/mL) and 100 µM.
For `Cc1ccc(NC(=O)N[C@@H](Cc2cc(F)cc(F)c2)C(=O)N[C@@H]2C(=O)N3CCC[C@H]3C(=O)N(C)[C@@H]([C@@H](C)O)C(=O)N[C@@H](C)C(=O)N3C[C@H](C)C[C@H]3C(=O)O[C@H]2C)cc1` [Compound 38, (S)-3-(3,5-difluorophenyl)-N-((2R,6S,9S,11aS,17S,18S,20aS)-9-((R)-1-hydroxyethyl)-2,6,10,18-tetramethyl-5,8,11,16,20-pentaoxohexadecahydro-1H,5H,16H-dipyrrolo[2,1-c:2′,1′-l][1]oxa[4,7,10,13]tetraazacyclohexadecin-17-yl)-2-(3-(p-tolyl)ureido)propanamide] ({NH(4-Me-phenyl)-CO}-[Phe(3,5-F2)][aThr]P[NMeT]A[Pro(4R-Me)]; ester 2-C), the MIC in assay [1] (setting [4]) and in assay [3] was 0.1 µM (≈ 0.0812 µg/mL) in each case. Moreover, the “Minimal Inhibitory Concentrations S. aureus USA 300 ΔClpP” value in assay [2] is 200 µM.
In the case of `C[C@@H]1C[C@H]2C(=O)O[C@@H](C)[C@H](NC(=O)[C@H](Cc3cc(F)cc(F)c3)NC(=O)Nc3ccc(OC(F)(F)F)cc3)C(=O)N3CCC[C@H]3C(=O)N(C)[C@@H]([C@@H](C)O)C(=O)N[C@@H](C)C(=O)N2C1` [Compound 41, (S)-3-(3,5-difluorophenyl)-N-((2R,6S,9S,11aS,17S,18S,20aS)-9-((R)-1-hydroxyethyl)-2,6,10,18-tetramethyl-5,8,11,16,20-pentaoxohexadecahydro-1H,5H,16H-dipyrrolo[2,1-c:2′,1′-l][1]oxa[4,7,10,13]tetraazacyclohexadecin-17-yl)-2-(3-(4-(trifluoromethoxy)phenyl)ureido)propanamide] ({NH(4-OCF3-phenyl)-CO}-[Phe(3,5-F2)][aThr]P[NMeT]A[Pro(4R-Me)]; ester 2-C), the results for the MIC in assay [1] (setting [5]) and in assay [3] were 0.1 µM (≈ 0.0882 µg/mL) and 0.02 µM (≈ 0.0176 µg/mL), respectively. The “Minimal Inhibitory Concentrations S. aureus USA 300 ΔClpP” value in assay [2] came out at 50 µM.
Regarding `CCc1ccc(NC(=O)N[C@@H](Cc2cc(F)cc(F)c2)C(=O)N[C@@H]2C(=O)N3CCC[C@H]3C(=O)N(C)[C@@H]([C@@H](C)O)C(=O)N[C@@H](C)C(=O)N3C[C@H](C)C[C@H]3C(=O)O[C@H]2C)cc1` [Compound 42, (S)-3-(3,5-difluorophenyl)-2-(3-(4-ethylphenyl)ureido)-N-((2R,6S,9S,11aS,17S,18S,20aS)-9-((R)-1-hydroxyethyl)-2,6,10,18-tetramethyl-5,8,11,16,20-pentaoxohexadecahydro-1H,5H,16H-dipyrrolo[2,1-c:2′,1′-l][1]oxa[4,7,10,13]tetraazacyclohexadecin-17-yl)propanamide] ({NH(4-Et-phenyl)-CO}-[Phe(3,5-F2)][aThr]P[NMeT]A[Pro(4R-Me)]; ester 2-C), the MIC in assay [1] (setting [5]) stood at 0.05 µM (≈ 0.0413 µg/mL); in assay [3] it was 0.1 µM (≈ 0.0826 µg/mL). Moreover, in assay [2], the “Minimal Inhibitory Concentrations S. aureus USA 300 ΔClpP” value was 100 µM.
In the case of `Cc1ccc(NC(=O)N[C@@H](Cc2cc(F)cc(F)c2)C(=O)N[C@@H]2C(=O)N3CCC[C@H]3C(=O)N(C)[C@@H]([C@@H](C)OP(=O)(O)O)C(=O)N[C@@H](C)C(=O)N3C[C@@H](C)C[C@H]3C(=O)O[C@H]2C)cc1` [Compound 188, (R)-1-((2S,6S,9S,11aS,17S,18S,20aS)-17-((S)-3-(3,5-difluorophenyl)-2-(3-(p-tolyl)ureido)propanamido)-2,6,10,18-tetramethyl-5,8,11,16,20-pentaoxohexadecahydro-1H,5H,16H-dipyrrolo[2,1-c:2′,1′-l][1]oxa[4,7,10,13]tetraazacyclohexadecin-9-yl)ethyl dihydrogen phosphate] ({NH(4-Me-phenyl)-CO}-[Phe(3,5-F2)][aThr]P[NMepT]A[Pro(4S-Me)]; ester 2-C), the MIC in assay [1] (setting [4]) and in assay [3] was 50 µM each time. In addition, the “Minimal Inhibitory Concentrations S. aureus USA 300 ΔClpP” value in assay [2] is above 200 µM.
On to `C[C@H]1C[C@H]2C(=O)O[C@@H](C)[C@H](NC(=O)[C@H](Cc3cc(F)cc(F)c3)NC(=O)Nc3ccc(OC(F)(F)F)cc3)C(=O)N3CCC[C@H]3C(=O)N3CCOC[C@H]3C(=O)N[C@@H](C)C(=O)N2C1` [Compound 201, (S)-3-(3,5-difluorophenyl)-2-(3-(4-(trifluoromethoxy)phenyl)ureido)-N-((6aS,12S,13S,15aS,17S,21S,23aS)-13,17,21-trimethyl-6,11,15,20,23-pentaoxooctadecahydro-6H,11H,15H-[1,4]oxazino[3,4-i]dipyrrolo[2,1-c:2′,1′-l][1]oxa[4,7,10,13]tetraazacyclohexadecin-12-yl)propanamide] ({NH(4-OCF3-phenyl)-CO}-[Phe(3,5-F2)][aThr]P[Morpholine(3S-CO)]A[Pro(4S-Me)]; ester 2-C), for which the figures for the MIC in assay [1] (setting [5]) and in assay [3] were 0.098 µM (≈ 0.0862 µg/mL) and 0.049 µM (≈ 0.0431 µg/mL), respectively. Moreover, in assay [2], the “Minimal Inhibitory Concentrations S. aureus USA 300 ΔClpP” value worked out at 50 µM.
`Cc1ccc(NC(=O)N[C@@H](Cc2cc(F)cc(F)c2)C(=O)N[C@@H]2C(=O)N3CCC[C@H]3C(=O)N(C)[C@@H]([C@H](C)O)C(=O)N[C@@H](C)C(=O)N3C[C@@H](C)C[C@H]3C(=O)O[C@H]2C)cc1` [Compound 202, (S)-3-(3,5-difluorophenyl)-N-((2S,6S,9S,11aS,17S,18S,20aS)-9-((S)-1-hydroxyethyl)-2,6,10,18-tetramethyl-5,8,11,16,20-pentaoxohexadecahydro-1H,5H,16H-dipyrrolo[2,1-c:2′,1′-L][1]oxa[4,7,10,13]tetraazacyclohexadecin-17-yl)-2-(3-(p-tolyl)ureido)propanamide] ({NH(4-Me-phenyl)-CO}-[Phe(3,5-F2)][aThr]P[NMeaThr]A[Pro(4S-Me)]; ester 2-C): the MIC was determined as 0.391 µM (≈ 0.317 µg/mL) in assay [1] (setting [4]) and 0.195 µM (≈ 0.158 µg/mL) in assay [3]. Moreover, the “Minimal Inhibitory Concentrations S. aureus USA 300 ΔClpP” value in assay [2] was determined as 200 µM.
Consider `C[C@H]1C[C@H]2C(=O)O[C@@H](C)[C@H](NC(=O)[C@H](Cc3cc(F)cc(F)c3)NC(=O)Nc3ccc(OC(F)(F)F)cc3)C(=O)N3CCC[C@H]3C(=O)N(C)[C@@H]([C@H](C)O)C(=O)N[C@@H](C)C(=O)N2C1` [Compound 203, (S)-3-(3,5-difluorophenyl)-N-((2S,6S,9S,11aS,17S,18S,20aS)-9-((S)-1-hydroxyethyl)-2,6,10,18-tetramethyl-5,8,11,16,20-pentaoxohexadecahydro-1H,5H,16H-dipyrrolo[2,1-c:2′,1′-l][1]oxa[4,7,10,13]tetraazacyclohexadecin-17-yl)-2-(3-(4-(trifluoromethoxy)phenyl)ureido)propanamide] ({NH(4-OCF3-phenyl)-CO}-[Phe(3,5-F2)][aThr]P[NMeaThr]A[Pro(4S-Me)]; ester 2-C), for which the figures for the MIC in assay [1] (setting [5]) and in assay [3] were 0.195 µM (≈ 0.172 µg/mL) and 0.098 µM (≈ 0.0864 µg/mL), respectively. The “Minimal Inhibitory Concentrations S. aureus USA 300 ΔClpP” value in assay [2] came out at 50 µM.
